Here are results for 15 compounds from PubChem BioAssay (NCI).

Some test systems named below: OVCAR-8 ovarian; NCI-H460 lung; ACHN renal; MALME-3M melanoma; 786-0 renal; IGROV1 ovarian; SW-620 colon; OVCAR-3 ovarian; UO-31 renal.
What all share (test): NCI tumour cell line growth inhibition, 48 h

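Briefly, cells in 96-well plates were exposed to five compound concentrations for 48 h, and endpoints were estimated by linear interpolation. Here, GI50 denotes the concentration required for 50% inhibition of growth. Definition used: TGI = concentration required for complete inhibition of growth.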

Consider `Cn1c2ccccc2c2c3c(c4c5cc(Br)ccc5n(C)c4c21)C(=O)N(O)C3=O`, for which the GI50 with OVCAR-8 ovarian was 0.113 µM; with NCI-H460 lung, 0.048 µM; in the test with ACHN renal it was 0.0346 µM; in the test on MALME-3M melanoma it was 0.494 µM; in the test on 786-0 renal, 0.289 µM; in the test on IGROV1 ovarian, 0.284 µM. In the test with SW-620 colon, the GI50 is 0.127 µM. The TGI with OVCAR-8 ovarian is over 100 µM; in the test on NCI-H460 lung, 1.08 µM; in the test on ACHN renal it was 0.124 µM; with MALME-3M melanoma it was over 100 µM; in the test on 786-0 renal, 1.4 µM; with IGROV1 ovarian, over 100 µM. Besides, the TGI in the test on SW-620 colon was over 100 µM.
In the case of `O=C(CCn1[nH]c(=O)c(Cl)c(Cl)c1=O)NO`, the TGI with OVCAR-3 ovarian, with UO-31 renal, in the test with OVCAR-8 ovarian, in the test on NCI-H460 lung, in the test with ACHN renal and with MALME-3M melanoma was over 100 µM in each case. The TGI with 786-0 renal, with IGROV1 ovarian and in the test with SW-620 colon was over 100 µM each time.
On to `Cc1cc([N+](=O)[O-])ccc1Nc1cccc(Cl)c1C`, for which the TGI is 27.8 µM in the test on OVCAR-3 ovarian; 24.4 µM in the test with UO-31 renal; 30.3 µM in the test with OVCAR-8 ovarian; 41.4 µM in the test with ACHN renal; 29.2 µM in the test with MALME-3M melanoma; 31.9 µM in the test with 786-0 renal. Further, the TGI in the test on IGROV1 ovarian turned out to be 27.6 µM; with SW-620 colon it was 62.7 µM.
As for `Cc1cc(CC(O)c2ccc(Cl)c(Cl)c2)nc(=O)[nH]1` (configuration not stated), the TGI in the test on OVCAR-3 ovarian, in the test on UO-31 renal, in the test with OVCAR-8 ovarian, in the test on NCI-H460 lung, in the test on ACHN renal and in the test with MALME-3M melanoma was over 100 µM each time. Further, the TGI was 38.7 µM with 786-0 renal and over 100 µM in the test on SW-620 colon.
As to `Cc1ccc(NC(=O)C(=O)C(C(=O)c2ccc3ccccc3c2)C2OC(=O)c3ccccc32)cc1C` (configuration not stated), the TGI in the test with OVCAR-3 ovarian was 48.6 µM; in the test on UO-31 renal, 27.6 µM; in the test with OVCAR-8 ovarian, 66.2 µM; in the test with NCI-H460 lung, 51.4 µM; with ACHN renal it was over 100 µM; with MALME-3M melanoma, 57.8 µM. The TGI in the test with 786-0 renal was 23.8 µM; in the test with IGROV1 ovarian, 64 µM; in the test with SW-620 colon, 63.7 µM.
`CCCN=C(N)NC#N`: the TGI in the test with OVCAR-3 ovarian, in the test with UO-31 renal, in the test on OVCAR-8 ovarian, in the test with NCI-H460 lung, with ACHN renal and in the test on MALME-3M melanoma was over 100 µM throughout. The TGI with 786-0 renal is 65.1 µM; with IGROV1 ovarian, over 100 µM; in the test with SW-620 colon, 30.8 µM.
With `O=S1(=O)C[C@H](O)[C@H](O)CS1`, the TGI in the test on OVCAR-3 ovarian, in the test with UO-31 renal, in the test on OVCAR-8 ovarian, in the test with NCI-H460 lung, with ACHN renal and with MALME-3M melanoma was over 100 µM in each case. In addition, the TGI in the test on 786-0 renal, in the test with IGROV1 ovarian and with SW-620 colon was over 100 µM throughout.
As for `Cc1nn(-c2ccccc2)c2nc(N3CCOCC3)nnc12`, the TGI with OVCAR-3 ovarian, in the test with UO-31 renal, with OVCAR-8 ovarian, with NCI-H460 lung, in the test with ACHN renal and in the test with MALME-3M melanoma was over 100 µM in each case. Besides, the TGI in the test with 786-0 renal, in the test with IGROV1 ovarian and in the test on SW-620 colon was over 100 µM each time.
As for `CC(C)N(C(=O)C12C3C4C5(C#N)C3C1(C#N)C5C42I)C(C)C` (configuration not stated), the TGI in the test on OVCAR-3 ovarian, in the test on UO-31 renal, in the test on OVCAR-8 ovarian, in the test on NCI-H460 lung, in the test on ACHN renal and with MALME-3M melanoma was over 100 µM throughout. Also, the TGI is over 100 µM in the test on 786-0 renal, over 100 µM in the test on IGROV1 ovarian and over 66 µM with SW-620 colon.
`NNC(=S)N/N=C(\CC1OC(=O)c2ccccc21)c1ccccc1O` (configuration not stated): the TGI in the test on OVCAR-3 ovarian, with UO-31 renal, in the test with OVCAR-8 ovarian, in the test with NCI-H460 lung, with ACHN renal and in the test on MALME-3M melanoma was over 100 µM throughout. Also, the TGI with 786-0 renal, with IGROV1 ovarian and in the test with SW-620 colon was over 100 µM throughout.
With `O=C(/C=C/c1ccccc1O)c1ccccc1O`, the TGI in the test with OVCAR-3 ovarian, with UO-31 renal, in the test with OVCAR-8 ovarian, with NCI-H460 lung, in the test on ACHN renal and in the test with MALME-3M melanoma was over 100 µM each time. For the same compound, the TGI in the test on 786-0 renal, in the test with IGROV1 ovarian and in the test on SW-620 colon was over 100 µM each time.
For `COc1ccc2c3c([nH]c2c1[N+](=O)[O-])C(C)=NCC3`, the TGI with OVCAR-3 ovarian, with UO-31 renal, with OVCAR-8 ovarian, in the test on NCI-H460 lung, in the test with ACHN renal and with 786-0 renal was over 100 µM throughout. The TGI in the test on IGROV1 ovarian was 77.2 µM; with SW-620 colon, over 100 µM.
On to `COc1ccc(C(=O)C(c2ccc(OC)cc2)C2(O)C(=O)Nc3ccc([N+](=O)[O-])cc32)cc1` (configuration not stated), for which the TGI in the test with OVCAR-3 ovarian, with UO-31 renal, in the test with OVCAR-8 ovarian, in the test on NCI-H460 lung, in the test with ACHN renal and with MALME-3M melanoma was over 100 µM in each case. In addition, the TGI in the test with 786-0 renal, in the test on IGROV1 ovarian and in the test with SW-620 colon was over 100 µM each time.
As for `Cc1ccc(S(=O)(=O)N(CC(=O)O)c2ccccc2)cc1`, the TGI with OVCAR-3 ovarian, with UO-31 renal, in the test with OVCAR-8 ovarian, in the test on NCI-H460 lung, in the test with ACHN renal and in the test on MALME-3M melanoma was over 100 µM in each case. Further, the TGI with 786-0 renal, in the test on IGROV1 ovarian and with SW-620 colon was over 100 µM each time.
As for `CN(C)/C=N/c1nc2c(ncn2C2OC(CO)C(O)C2O)c(=O)[nH]1` (configuration not stated), the TGI in the test on OVCAR-3 ovarian, in the test with UO-31 renal, in the test on OVCAR-8 ovarian, in the test with NCI-H460 lung, with ACHN renal and with MALME-3M melanoma was over 100 µM throughout. For the same compound, the TGI in the test on 786-0 renal, with IGROV1 ovarian and in the test with SW-620 colon was over 100 µM each time.
